Results taken from publication PMC11602115 (Journal of Medicinal Chemistry, 2017).

Experiments:
Dog PK (iv and oral) = format: in vivo, Beagle dogs
Mouse PK (iv and oral) = format: in vivo, male CD-1 mice
Monkey PK (iv and oral) = format: in vivo, cynomolgus monkeys
[1] = iv PK in bile-duct cannulated (BDC) versus normal rats; format: in vivo, rat; conditions: iv administration
Source text: One explanation for the prolonged exposure was the possibility of enterohepatic recirculation. […] A more definitive study was therefore conducted in bile-duct cannulated (BDC) rats.

EP1 = target: T1, EP1 (Homo sapiens, UniProt P34995); experiment: Radioligand binding, EP1 ([3H]-PGE2); set-up: purchased MDS Pharma (Taiwan) and CEREP (France), contract assays; conditions: cloned human receptor; mean of two determinations
T1 sequence (P34995 1-402): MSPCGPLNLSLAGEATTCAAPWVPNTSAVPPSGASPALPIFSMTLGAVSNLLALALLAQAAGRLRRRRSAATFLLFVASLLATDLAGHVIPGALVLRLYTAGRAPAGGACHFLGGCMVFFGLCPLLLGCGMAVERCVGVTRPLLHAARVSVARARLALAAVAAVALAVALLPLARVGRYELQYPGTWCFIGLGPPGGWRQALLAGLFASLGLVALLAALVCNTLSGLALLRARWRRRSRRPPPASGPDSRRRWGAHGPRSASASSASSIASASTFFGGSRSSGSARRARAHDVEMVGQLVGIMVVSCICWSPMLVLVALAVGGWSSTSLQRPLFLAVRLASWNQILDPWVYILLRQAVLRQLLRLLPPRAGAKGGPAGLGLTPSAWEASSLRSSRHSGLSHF
Description: Additional (non-IP) receptor binding assays were carried out by MDS Pharma (Taiwan) and CEREP (France).

O=C(O)COC[C@H]1CC[C@H](COC(=O)N(c2ccccc2)c2ccc(Cl)cc2)CC1 [5c, Sodium 2-(((1r,4r)-4-(((4-Chlorophenyl)(phenyl)carbamoyloxy)methyl)cyclohexyl)methoxy)acetate]
half-life (Dog PK (iv and oral); beagle, plasma, oral, 0.2 mg/kg, read-out: elimination half-life in dog (converted)): 10 h
AUC0–inf (Dog PK (iv and oral); iv 0.2 mg/kg): 1050 ± 300 ng·h/mL
Clobs (Dog PK (iv and oral); iv 0.2 mg/kg): 0.202 ± 0.057 L h^–1 kg^–1
T1/2 (Dog PK (iv and oral); iv 0.2 mg/kg): 3.54 ± 0.42 h
AUC0–inf (Dog PK (iv and oral); po 0.2 mg/kg): 719 ± 290 ng·h/mL
Cmax (Dog PK (iv and oral); po 0.2 mg/kg): 327 ± 16 ng/mL
F (Dog PK (iv and oral); po 0.2 mg/kg): 68.4%
T1/2 (Dog PK (iv and oral); po 0.2 mg/kg): 9.79 ± 0.94 h
Tmax (Dog PK (iv and oral); po 0.2 mg/kg): 0.417 ± 0.144 h
AUC0–inf (Dog PK (iv and oral); po 2 mg/kg): 9750 ± 5270 ng·h/mL
Cmax (Dog PK (iv and oral); po 2 mg/kg): 3440 ± 900 ng/mL
F (Dog PK (iv and oral); po 2 mg/kg): 92.9%
T1/2 (Dog PK (iv and oral); po 2 mg/kg): 5.53 ± 1.48 h
Tmax (Dog PK (iv and oral); po 2 mg/kg): 0.833 ± 0.289 h
T1/2 (Mouse PK (iv and oral); iv […]): 5.59 h
AUC0–inf (Mouse PK (iv and oral); po 9.49 mg/kg): 11500 ng·h/mL
Cmax (Mouse PK (iv and oral); po 9.49 mg/kg): 4940 ng/mL
F (Mouse PK (iv and oral); po 9.49 mg/kg): 83.4%
T1/2 (Mouse PK (iv and oral); po 9.49 mg/kg): 8.08 h
Tmax (Mouse PK (iv and oral); po 9.49 mg/kg): 0.250 h
half-life (Monkey PK (iv and oral); cynomolgus monkey, plasma, oral, 0.1 mg/kg, read-out: elimination half-life in monkey (converted)): 18 h
AUC0–inf (Monkey PK (iv and oral); monkey, iv 0.1 mg/kg): 145 ± 95 ng·h/mL
Clobs (Monkey PK (iv and oral); monkey, iv 0.1 mg/kg): 0.881 ± 0.579 L h^–1 kg^–1
T1/2 (Monkey PK (iv and oral); monkey, iv 0.1 mg/kg): 24.2 ± 2.1 h
AUC0–inf (Monkey PK (iv and oral); monkey, po 0.1 mg/kg): 161 ± 116 ng·h/mL
Cmax (Monkey PK (iv and oral); monkey, po 0.1 mg/kg): 12.1 ± 3.6 ng/mL
F (Monkey PK (iv and oral); monkey, po 0.1 mg/kg): 98.7%
T1/2 (Monkey PK (iv and oral); monkey, po 0.1 mg/kg): 17.5 ± 3.4 h
Tmax (Monkey PK (iv and oral); monkey, po 0.1 mg/kg): 2.67 ± 2.89 h
AUC0–inf (Monkey PK (iv and oral); monkey, po 0.5 mg/kg): 2900 ± 1350 ng·h/mL
Cmax (Monkey PK (iv and oral); monkey, po 0.5 mg/kg): 92.8 ± 29.7 ng/mL
F (Monkey PK (iv and oral); monkey, po 0.5 mg/kg): >100%
T1/2 (Monkey PK (iv and oral); monkey, po 0.5 mg/kg): 38.7 ± 21.3 h
Tmax (Monkey PK (iv and oral); monkey, po 0.5 mg/kg): 4.17 ± 3.18 h
reduction in the apparent plasma half-life in BDC rats ([1]; BDC versus normal rats): 3 fold
concentrations in bile and urine compared to plasma ([1]; rat): negligible
Ki (EP1): 9.6 µM
